Patent US10231939B2, “Hydroxytyrosol and oleuropein compositions for induction of DNA damage, cell death and LSD1 inhibition” (priority 2012, dated 2019)

Key:
Assay in all cases: Cell proliferation (Cell Titer-Blue Assay)
R100 cells = assay type: cell-based, human; conditions: for EC50: Homo sapiens
Protocol: (§1) Human acute T lymphoblast leukemic CEM-CCRF cells (ATTC NO. CCL-119), obtained from the ATCC were maintained in a Modified Eagle's Medium (α-MEM) supplemented with 2 mmol/L HEPES (pH 7.4; GIBCO-Invitrogen, Carlsbad, Calif., USA), 10% (v/v) FBS, 2 mmol/L L-glutamine (GIBCO-Invitrogen), and 80 units gentamicin (GIBCO-Invitrogen). Similarly, CEM-CCRF—P-glycoprotein (PGP)—over expressing, vinblastine derivative—R100 cells, expressing multi-drug resistance (MDR) were grown in a-MEM supplemented with 2 mmol/L HEPES (pH 7.4), 10% (v/v) FBS, 2 mmol/L L-glutamine, 80 units gentamicin and 100 ng/ml vinblastine. R100 cells were cultured in a-MEM/FBS/gentamicin media without vinblastine for 7 days prior to use in experiments. Cells were cultured in suspension in a humidified atmosphere of 5% (v/v) CO2 at 37° C. and were maintained in exponential growth phase. For maintenance, cells were passaged twice per week and seeded at ratios 1:10. Cell proliferation was determined using the Cell Titer-Blue Assay kit (Promega, Madison, Wis., USA). Cells were seeded at 10,000 cells per well in black flat bottom 96-well plates (Nalge Nunc, Penfield, N.Y., USA) and treated with serial doses of hydroxytyrosol (0-3200 μM) and oleuropein (0-12800 μM) for 24, 48 and 120 hours at 37° C., 5% (v/v) CO2. Following incubation with the test samples, Cell-Titer Blue reagent (20 μl per 100 μL) was added to each well and mixed gently for 5 sec prior to 4 hr incubation at 37° C. in a humidified atmosphere of 5% CO2. Fluorescence intensity (λex=550 nm and λem=615 nm) was determined using a Perkin Elmer Victor3 multilabel microplate counter (PerkinElmer, Waltham, Mass., USA). Data were expressed as % relative cell viability compared to untreated cells after correction of subtracting the media control fluorescence reading.

CEM-CCRF cells = assay type: cell-based, human; conditions: for EC50: Homo sapiens
Protocol: as §1

SNU-16 cells = assay type: cell-based; conditions: Homo sapiens
From the text: Human chronic myelogenous leukemia K562 cells (ATCC No. CCL-243), human large B-lymphocyte non-Hodgkin's lymphoma LCL cells, human leukemic monocyte lymphoma U937 cells (ATCC No. CRL-1593.2), human prostate adenocarcinoma PC3 (ATCC No. CRL-1435) and human gastric carcinoma SNU-16 cells (ATCC No. CRL-5974) were maintained in complete-[…] Park Memorial Institute (RPMI) 1640 medium supplemented with 20 mmol/L HEPES (pH 7.4; GIBCO-Invitrogen, Carlsbad, Calif., USA), 10% (v/v) fetal bovine serum (FBS), 2 mmol/L L-glutamine (GIBCO-Invitrogen), and 80 units gentamicin (GIBCO-Invitrogen). Cells were cultured in suspension in a humidified atmosphere of 5% (v/v) CO2 at 37° C. and were maintained in exponential growth phase. For maintenance, cells were passaged twice per week and seeded at ratios 1:10. Cell proliferation was determined using the Cell Titer-Blue Assay kit (Promega, Madison, Wis., USA). Cells were seeded at 10,000 cells per well in black flat bottom 96-well plates (Nalge Nunc, Penfield, N.Y., USA) and treated with serial doses of hydroxytyrosol (0-3200 μM) and oleuropein (0-12800 μM) for 24, 48 and 120 hours at 37° C., 5% (v/v) CO2. Following incubation with the test samples, Cell-Titer Blue reagent (20 μl per 100 μL) was added to each well and mixed gently for 5 sec prior to 4 hr incubation at 37° C. in a humidified atmosphere of 5% CO2. Fluorescence intensity (λex=550 nm and λem=615 nm) was determined using a Perkin Elmer Victor3 multilabel microplate counter (PerkinElmer, Waltham, Mass., USA). Data were expressed as % relative cell viability compared to untreated cells after correction of subtracting the media control fluorescence reading.

PBMC = assay type: cell-based, human; conditions: for cell proliferation of PBMC: 120 hours incubation; for EC50: Homo sapiens, 24 hr
Protocol: Human peripheral blood mononuclear cells (PBMCs) were fractionated using the Ficoll Plaque fractionation method from whole blood obtained from the Australian Red Cross Blood Bank (ARCB) under ethic approval (#304/12). Cells were harvested fresh on the day of the experiments and maintained in complete-RPMI-1640 medium supplemented with 10% FBS, 2 mM L-glutamine and 20 μg/mL gentamicin at 37° C., 5% (v/v) CO2. Cell proliferation was determined using the Cell Titer-Blue Assay kit (Promega, Madison, Wis., USA). Cells were seeded at 10,000 cells per well in black flat bottom 96-well plates (Nalge Nunc, Penfield, N.Y., USA) and treated with serial doses of hydroxytyrosol (0-3200 μM) and oleuropein (0-12800 μM) for 24, 48 and 120 hours at 37° C., 5% (v/v) CO2. Following incubation with the test samples, Cell-Titer Blue reagent (20 μl per 100 μL) was added to each well and mixed gently for 5 sec prior to 4 hr incubation at 37° C. in a humidified atmosphere of 5% CO2. Fluorescence intensity (λex=550 nm and λem=615 nm) was determined using a Perkin Elmer Victor3 multilabel microplate counter (PerkinElmer, Waltham, Mass., USA). Data were expressed as % relative cell viability compared to untreated cells after correction of subtracting the media control fluorescence reading.

EC50 (CEM-CCRF cells; 24 hr) | EC50 (CEM-CCRF cells; 48 hr) | EC50 (CEM-CCRF cells; 120 hr) | EC50 (SNU-16 cells; SNU-16, 24 hr) | EC50 (SNU-16 cells; SNU-16, 48 hr) | SMILES | EC50 (R100 cells; R100, 24 hr) | EC50 (R100 cells; R100, 48 hr) | EC50 (R100 cells; R100, 120 hr) | EC10 (concentration required to reduce the cell viability of the population to 10%) (R100 cells; R100, 120 hr) | EC10 (concentration required to reduce the cell viability of the population to 10%) (CEM-CCRF cells; 120 hr) | cell proliferation of PBMC (PBMC) | cell proliferation of PBMC (PBMC; listed as hydroxytyrosol) | EC50 (PBMC)
121 µM | 100 µM | 42 µM | 1100 µM | 80 µM | OCCc1ccc(O)c(O)c1 [HT, 4-(2-hydroxyethyl)-1,2-benzenediol] | 190 µM | 100 µM | 40 µM | 86 µM | 80 µM | increases the proliferation | attenuated | 855 µM
437 µM | 1800 µM | 325 µM | 2820 µM | 800 µM | C/C=C1/[C@H](O[C@@H]2O[C@H](CO)[C@@H](O)[C@H](O)[C@H]2O)OC=C(C(=O)OC)[C@H]1CC(=O)OCCc1ccc(O)c(O)c1 [OL, oleuropein] | 320 µM | 1000 µM | 250 µM | 530 µM | 700 µM |  |  | 2710 µM
